Assay results published in patent US10662174B2, “BTK inhibitor” (Hubei Bio-Pharmaceutical Industrial Technological Institute …, priority 2015, dated 2020).
Like-named read-outs stand apart in the source and are kept apart here.

Molecular target: T1, BTK kinase (Homo sapiens, UniProt Q06187)
T1 construct: purchased Invitrogen PR5442A
Assay: Assay of inhibition activity of BTK in vitro (HTRF kit, read on Envision)
Type: biochemical
Description: Assay of Inhibition Activity of BTK In Vitro
The inhibition of compounds on BTK kinase was evaluated by […] detected by Envision, using the IC50 value of the compounds as index.
BTK kinase: Invitrogen-PR5442A
HTRF Assay Kit: Cisbio-62TKOPEJ
Plate for compound preparation: Greiner-781280
Cisbio HTRF Kit: Cisbio-62TKOPEJ
Centrifuge: Eppendorf-5810R
Bravo: Agilent Technologies-Bravo
Gradient Dilution of Compounds: […]
The test compound was dissolved with DMSO to be of 1 mM as a stock solution. Such a stock solution was diluted with DMSO by 10-fold, thereby obtaining an initial solution in a concentration of […] which was added into wells at the second column in a plate. 20 μL DMSO was added to other wells using Bravo. Then, 10 μL of the initial solution was transferred from wells at the second column to wells at the third column, followed by mixing obtained solution in the wells at the third column, thereby obtain a first diluted solution in a concentration of 1/3 μM. Subsequently, 10 μL of the first diluted solution was further transferred from wells at the third column to wells at the fourth column, followed by mixing obtained solution in the wells at the fourth column, thereby obtain a second diluted solution in a concentration of 1/9 μM. Such a three-fold serial dilution was performed 10 times, with 11 solutions in series diluted concentrations and a final diluted solution in a concentration of 0.017 nM obtained.
All diluted solutions were further diluted by 25-fold with ultrapure water, thus obtain test solutions, which were equilibrated at r.t. for 30 min before use.
To 2.5 μL of test solution, which was pipetted into each well of Assay plate using Bravo, 5 μL kinase mixture was added using the multi-channel pipettor. The mixture was centrifuged at 1000 rpm for 20 s, followed by incubation at 23° C. for 30 min. The reaction was initiated by 2.5 μL ATP mixture which was pipetted into the wells by Multidrop.
The reaction mixture of BTK kinase (10 μL) included 1.0 nM BTK, 1 μM biotin-TK1 peptide and 20 μM ATP. The reaction buffer included 50 mM Hepes (pH7.5), 10 mM MgCl2 and 0.01 mM […]. The kinase mixture was reacted in incubator at 23° C. for 90 mim.
The reaction was stopped by adding 10 μL Detection Reagent to each well of Assay plate, and the plate was left in incubator at 23° C. for 1 h before read on Envision.
Data analysis: The IC50 values of compounds were calculated using Excel fit.

[1] = 1.0 nM BTK, 1 μM biotin-TK1 peptide, 20 μM ATP, 23° C., tested by Envision, read-out: BTK IC50

T1 sequence (Q06187 whole entry): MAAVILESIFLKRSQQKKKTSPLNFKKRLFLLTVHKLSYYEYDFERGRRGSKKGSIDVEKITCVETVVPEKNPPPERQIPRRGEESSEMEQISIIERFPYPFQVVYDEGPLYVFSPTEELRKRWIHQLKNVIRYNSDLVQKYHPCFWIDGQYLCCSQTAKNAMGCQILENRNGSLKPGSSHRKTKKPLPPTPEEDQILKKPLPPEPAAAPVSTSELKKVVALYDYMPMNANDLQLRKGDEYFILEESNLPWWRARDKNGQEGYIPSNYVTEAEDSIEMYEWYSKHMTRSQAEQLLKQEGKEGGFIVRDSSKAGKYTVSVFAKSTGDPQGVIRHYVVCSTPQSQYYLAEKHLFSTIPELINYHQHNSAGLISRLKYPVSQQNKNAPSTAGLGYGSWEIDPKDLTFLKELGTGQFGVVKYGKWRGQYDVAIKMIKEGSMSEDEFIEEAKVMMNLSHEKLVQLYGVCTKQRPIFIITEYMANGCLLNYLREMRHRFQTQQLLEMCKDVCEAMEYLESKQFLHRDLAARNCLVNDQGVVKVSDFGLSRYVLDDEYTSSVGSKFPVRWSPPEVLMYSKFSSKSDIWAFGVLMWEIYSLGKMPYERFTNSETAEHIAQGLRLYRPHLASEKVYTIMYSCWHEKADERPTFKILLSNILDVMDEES

| Structure (SMILES) | IC50 [1] | IC50 |
| --- | --- | --- |
| C=CC(=O)N1CCCC(n2nc(-c3ccc(Oc4ccccc4)cc3)c3c(N)nn(C)c(=O)c32)C1 (stereo not shown) [Example 85] | 0.1 to 1 µM |  |
| C=CC(=O)N1CCC[C@@H](Nc2ncnc(N)c2-n2ncc3cc(OCCOC)ccc32)C1 [Example 19] | 1 to 10 µM |  |
| C=CC(=O)Nc1ccc2cnn(-c3ncnc(Nc4ccc(OCCOC)cc4)n3)c2c1 [Example 15] | 1 to 10 µM |  |
| C=CC(=O)N1CCC[C@@H](n2nc(-c3ccc(OC4CC5CC5C4)cc3)c3c(N)n[nH]c(=O)c32)C1 (stereo partly shown) [Example 35] | < 0.1 µM |  |
| C=CC(=O)N1CCCCC(n2nc(-c3ccc(Oc4ccccc4)cc3)c3c(N)n[nH]c(=O)c32)C1 (stereo not shown) [Example 51] | < 0.1 µM |  |
| C=CC(=O)Nc1ccc2ncn(-c3ncnc(Nc4ccc(OCCOC)cc4)n3)c2c1 [Example 27] | 1 to 10 µM |  |
| C=CC(=O)N1CCCC(n2nc(-c3ccc(Oc4ccccc4)cc3)c3c(N)nn(CC)c(=O)c32)C1 (stereo not shown) [Example 86] | 1 to 10 µM |  |
| C=CC(=O)N1CCCC(n2nc(-c3ccc(Oc4ccccc4)cc3)c3c(N)n[nH]c(=O)c32)C1 (stereo not shown) [Example 20] | < 0.1 µM |  |
| C=CS(=O)(=O)N1CCC[C@@H](n2nc(-c3ccc(Oc4ccccc4)cc3)c3c(N)n[nH]c(=O)c32)C1 [Example 77] | < 0.1 µM |  |
| C=CC(=O)N1CCCC(n2nc(-c3ccc(Oc4ccccc4F)cc3)c3c(N)n[nH]c(=O)c32)C1 (stereo not shown) [Example 71] | < 0.1 µM |  |
| C=CC(=O)NC1CCCC(n2nc(-c3ccc(Oc4ccccc4)cc3)c3c(N)n[nH]c(=O)c32)C1 (stereo not shown) [Example 62] | < 0.1 µM |  |
| C=CC(=O)N1CCCC(n2nc(-c3ccc(Oc4ccccc4)cc3)c3c(N)noc(=O)c32)C1 (stereo not shown) [Example 70] | 1 to 10 µM |  |
| C=CC(=O)N1CCCC(n2nc(-c3ccc(Oc4cccc(F)c4)cc3)c3c(N)n[nH]c(=O)c32)C1 (stereo not shown) [Example 56] | < 0.1 µM |  |
| CN1CCN(c2ccc(Nc3cc(-c4ccc5c(c4)c(C(=O)c4ccc(C6CC6)cc4F)cn5C)cn(C)c3=O)nc2)CC1 [Example 5] |  | 1 to 10 µM |
| C=CC(=O)N1CC(n2nc(-c3ccc(Oc4ccccc4)cc3)c3c(N)n[nH]c(=O)c32)C1 [Example 73] | < 0.1 µM |  |
| C=CC(=O)N1CCC[C@@H](Nc2ncnc(N)c2-n2ncc3cc(Oc4ccccc4)ccc32)C1 [Example 18] | 1 to 10 µM |  |
| C=CC(=O)N1CCCC(n2nc(-c3ccc(Oc4ccccc4)cc3)c3c(N)nn(CCO)c(=O)c32)C1 (stereo not shown) [Example 50] | 0.1 to 1 µM |  |
| C=CC(=O)N1CCCC(n2nc(-c3ccc(Oc4ccccc4)cc3)c3c(N)nn(CC(F)(F)F)c(=O)c32)C1 (stereo not shown) [Example 87] | 1 to 10 µM |  |
| C=CC(=O)N(C)[C@H]1CC[C@@H](n2nc(-c3ccc(Oc4ccccc4)cc3)c3c(N)n[nH]c(=O)c32)CC1 [Example 82] | < 0.1 µM |  |
| C=CC(=O)N1CCC[C@@H](Nc2ncnc3[nH]c(=O)c(-c4ccccc4)cc23)C1 [Example 2] | 1 to 10 µM |  |
| C=CC(=O)N1CCC[C@@H](n2nc(-c3ccc(Oc4ccc(C)cn4)cc3)c3c(N)n[nH]c(=O)c32)C1 [Example 91] | < 0.1 µM |  |
| CC#CC(=O)N1CCC[C@@H](n2nc(-c3ccc(Oc4ccccc4)cc3)c3c(N)n[nH]c(=O)c32)C1 [Example 45] | < 0.1 µM |  |
| C=CC(=O)N[C@H]1CC[C@@H](n2nc(-c3ccc(Oc4ccccc4F)cc3)c3c(N)n[nH]c(=O)c32)CC1 [Example 83] | < 0.1 µM |  |
| CN(C)C/C=C/C(=O)N1CCC[C@@H](n2nc(-c3ccc(Oc4ccccc4)cc3)c3c(N)n[nH]c(=O)c32)C1 [Example 81] | < 0.1 µM |  |
| Cc1ccn2c(=O)c(-c3cccc(-c4cc(Nc5ccc(N6CCN(C)CC6)cn5)c(=O)n(C)c4)c3C)cnc2c1 [Example 6] | 1 to 10 µM |  |
| C=CC(=O)Nc1cccc2c1cnn2-c1nc(Nc2ccc(OCCOC)cc2)ncc1F [Example 13] | 1 to 10 µM |  |

| Structure (SMILES) | IC50 [1] | IC50 |
| --- | --- | --- |
| C=CS(=O)(=O)N[C@H]1CC[C@@H](n2nc(-c3ccc(Oc4ccccn4)cc3)c3c(N)n[nH]c(=O)c32)CC1 [Example 39] | < 0.1 µM |  |
| C=CC(=O)N1CCC[C@@H](n2nc(-c3ccc(Oc4cccc(C)n4)cc3)c3c(N)n[nH]c(=O)c32)C1 [Example 92] | < 0.1 µM |  |
| C=CC(=O)Nc1ccc(-c2nc3cnc(Nc4ccc(OCCOC)cc4)nc3[nH]2)cc1 [Example 22] | < 0.1 µM |  |
| C=CC(=O)N1CCCC(Nc2ncnc(N)c2C(=O)c2ccc(Oc3ccccc3)cc2Cl)C1 (stereo not shown) [Example 42] | 0.1 to 1 µM |  |
| CN(C)C/C=C/C(=O)N[C@H]1CC[C@@H](n2nc(-c3ccc(Oc4ccccn4)cc3)c3c(N)n[nH]c(=O)c32)CC1 [Example 64] | 0.1 to 1 µM |  |
| C=CC(=O)N1CCCC(c2c3c(=O)[nH]nc(N)c3nn2-c2ccc(Oc3ccccc3)cc2)C1 (stereo not shown) [Example 78] | 0.1 to 1 µM |  |
| C=CC(=O)N1CCCC(n2nc(-c3ccc(Oc4ccccn4)cc3)c3c(N)n[nH]c(=O)c32)C1 (stereo not shown) [Example 68] | < 0.1 µM |  |
| C=CC(=O)N1CCC[C@@H](Nc2ncnc(N)c2C(=O)c2ccc(Oc3ccccc3)cc2F)C1 [Example 26] | 1 to 10 µM |  |
| C=CC(=O)N1CCC(n2nc(-c3ccc(Oc4ccccc4)cc3)c3c(N)n[nH]c(=O)c32)C1 (stereo not shown) [Example 43] | < 0.1 µM |  |
| C=CC(=O)N1CCCC(n2c(=O)c(-c3ccc(Oc4ccccc4)cc3)cc3c(N)ncnc32)C1 (stereo not shown) [Example 30] | 0.1 to 1 µM |  |
| CN(C)C/C=C/C(=O)N1CC[C@@H](n2nc(-c3ccc(Oc4ccccc4)cc3)c3c(N)n[nH]c(=O)c32)C1 [Example 61] | < 0.1 µM |  |
| C=CC(=O)N1CCC[C@@H](n2cc(-c3ccc(Oc4ccccc4)cc3)c3c(N)n[nH]c(=O)c32)C1 [Example 53] | < 0.1 µM |  |
| C=CC(=O)N(C)CCn1nc(-c2ccc(Oc3ccccc3)cc2)c2c(N)n[nH]c(=O)c21 [Example 31] | < 0.1 µM |  |
| C=CC(=O)N1CC2(CC(n3nc(-c4ccc(Oc5ccccc5)cc4)c4c(N)n[nH]c(=O)c43)C2)C1 [Example 46] | < 0.1 µM |  |
| CN1CCNC(=O)C1c1ccc(Nc2ccc(-c3ccc4c(c3)c(C(=O)c3ccc(C5CC5)cc3F)cn4C)n(C)c2=O)cc1 (stereo not shown) [Example 16] |  | 0.1 to 1 µM |
| C=CC(=O)N1CCC[C@@H](n2nc(-c3ccc(OC4CC4)cc3)c3c(N)n[nH]c(=O)c32)C1 [Example 33] | < 0.1 µM |  |
| C=CC(=O)N1CCC[C@@H](n2nc(-c3ccc(OC4CCCC4)cc3)c3c(N)n[nH]c(=O)c32)C1 [Example 79] | < 0.1 µM |  |
| C=CC(=O)N1CCC[C@@H](n2nc(-c3ccc(Oc4ncccc4C)cc3)c3c(N)n[nH]c(=O)c32)C1 [Example 93] | < 0.1 µM |  |
| C=CC(=O)N[C@H]1CC[C@H](n2nc(-c3ccc(Oc4ccccc4)cc3)c3c(N)n[nH]c(=O)c32)CC1 [Example 63] | < 0.1 µM |  |
| C=CC(=O)N1CCC[C@@H](n2nc(-c3ccc(Oc4ccc(C)nn4)cc3)c3c(N)n[nH]c(=O)c32)C1 [Example 90] | 0.1 to 1 µM |  |
| C=CC(=O)Nc1ccc2ncn(-c3nc(Nc4ccc(OCCOC)cc4)ncc3F)c2c1 [Example 14] | 1 to 10 µM |  |
| C=CC(=O)N[C@H]1CC[C@@H](n2nc(-c3ccc(Oc4ccccn4)cc3)c3c(N)n[nH]c(=O)c32)CC1 [Example 65] | < 0.1 µM |  |
| COCCOc1ccc(Nc2ncc3[nH]c(CCN)nc3n2)cc1 [Example 23] | 1 to 10 µM |  |
| C=CC(=O)N1CCC[C@H]1Cn1nc(-c2ccc(Oc3ccccc3)cc2)c2c(N)n[nH]c(=O)c21 [Example 37] | < 0.1 µM |  |
| C=CC(=O)N1CCCC(n2nc(-c3ccc(Oc4ccccc4)cc3)c3cc4c(N)ncnc4cc32)C1 (stereo not shown) [Example 108] | 1 to 10 µM |  |
| Cc1ccn2c(=O)c(-c3cccc(-c4cn(C)c(=O)c(Nc5ccc([C@@H]6C(=O)NCCN6C)cc5)n4)c3C)ccc2c1 [Example 11] | 1 to 10 µM |  |
